Assay results as given in PubChem BioAssay AID220 (DTP/NCI, 2004).
Where “and” joins values, the source holds several entries; their conditions need not be identical. Equal values may be shown once. Results filed as inconclusive are left out.

Test system: CD8F1 mice, subcutaneous mammary adenocarcinoma, T/C%
Assay: NCI In Vivo Anticancer Drug Screen. Data for tumor model Mammary Adenocarcinoma CD8F1 (subcutaneous) in CD8F1
Details: higher = larger tumour
How it was run: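 Antitumor activity is assessed in transplantable-tumor mice by comparing the treated group with a vehicle-treated control group. Survival or tumor size serves as the measure, reported as T divided by C.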

[1] = endpoint: median tumor weight change, dose: 250.0 mg/kg/injection, schedule: Q01DX001 (ip), vehicle: saline with Tween-80
[2] = endpoint: median tumor weight change, dose: 500.0 mg/kg/injection, schedule: Q01DX001 (ip), vehicle: saline with Tween-80
[3] = endpoint: median tumor weight (est.), dose: 100.0 mg/kg/injection, schedule: Q07DX005 (ip), vehicle: saline with Tween-80
[4] = endpoint: median tumor weight (est.), dose: 25.0 mg/kg/injection, schedule: Q07DX005 (ip), vehicle: Klucel (hydroxypropylcellulose) (HPC)
[5] = endpoint: median tumor weight (est.), dose: 50.0 mg/kg/injection, schedule: Q07DX005 (ip), vehicle: Klucel (hydroxypropylcellulose) (HPC)
[6] = endpoint: median tumor weight (est.), dose: 12.5 mg/kg/injection, schedule: Q07DX005 (ip), vehicle: saline
[7] = endpoint: median tumor weight (est.), dose: 25.0 mg/kg/injection, schedule: Q07DX005 (ip), vehicle: saline
[8] = endpoint: median tumor weight (est.), dose: 50.0 mg/kg/injection, schedule: Q07DX005 (ip), vehicle: saline
[9] = endpoint: median tumor weight (est.), dose: 6.25 mg/kg/injection, schedule: Q07DX005 (ip), vehicle: saline
[10] = endpoint: median tumor weight (est.), dose: 12.5 mg/kg/injection, schedule: Q07DX005 (ip), vehicle: saline with Tween-80
[11] = endpoint: median tumor weight (est.), dose: 25.0 mg/kg/injection, schedule: Q07DX005 (ip), vehicle: saline with Tween-80

Compound: CC1C(=O)c2cc3c(cc2CCN(C)Cc2c1ccc1c2OCO1)OCO3 (centres undefined)
- T/C (endpoint: median tumor weight change, dose: 12.5 mg/kg/injection, schedule: Q01DX001 (ip), vehicle: saline with Tween-80): 65 % of control
- T/C (endpoint: median tumor weight change, dose: 25.0 mg/kg/injection, schedule: Q01DX001 (ip), vehicle: saline with Tween-80): 64 % of control

Compound: CN(C)C1C(=O)C(C(=O)NP(=O)(NCCCO)N(CCCl)CCCl)=C(O)C2(O)C(=O)C3=C(O)c4c(O)cccc4C(C)(O)C3CC12 (centres undefined)
- T/C [1]: 46 % of control and 69 % of control
- T/C [2]: 21 % of control

Compound: Nc1ccc(C(OC(=O)c2cc3ccccc3c(Cc3c(O)c(C(=O)OC(c4ccc(N)cc4)(c4ccc(N)cc4)c4ccc(N)cc4)cc4ccccc34)c2O)(c2ccc(N)cc2)c2ccc(N)cc2)cc1
- T/C (endpoint: median tumor weight change, dose: 6.25 mg/kg/injection, schedule: Q01DX001 (ip), vehicle: saline with Tween-80): 73 % of control
- T/C (endpoint: median tumor weight change, dose: 50.0 mg/kg/injection, schedule: Q01DX001 (ip), vehicle: saline with Tween-80): 97 % of control
- T/C (endpoint: median tumor weight change, dose: 62.5 mg/kg/injection, schedule: Q01DX001 (ip), vehicle: saline with Tween-80): 61 % of control

Compound: C=C1C(=O)C23[C@H](O)C1CC[C@H]2[C@]12COC3(O)[C@@H](O)[C@@H]1C(C)(C)CC[C@@H]2O
- T/C (endpoint: median tumor weight (est.), dose: 8.75 mg/kg/injection, schedule: Q07DX005 (ip), vehicle: Klucel (hydroxypropylcellulose) (HPC)): 104 % of control
- T/C (endpoint: median tumor weight (est.), dose: 17.5 mg/kg/injection, schedule: Q07DX005 (ip), vehicle: Klucel (hydroxypropylcellulose) (HPC)): 65 % of control
- T/C (endpoint: median tumor weight change, dose: 15.62 mg/kg/injection, schedule: Q01DX001 (ip), vehicle: saline with Tween-80): 54 % of control
- T/C (endpoint: median tumor weight change, dose: 31.25 mg/kg/injection, schedule: Q01DX001 (ip), vehicle: saline with Tween-80): 61 % of control

Compound: COC1CC(C)C(OC)c2cc(O)cc(c2O)NC(=O)/C(C)=C/C=C\C(C)C(OC(N)=O)/C(C)=C\C(C)C1OC (centres undefined)
- T/C (endpoint: median tumor weight change, dose: 6.25 mg/kg/injection, schedule: Q01DX001 (ip), vehicle: saline + Tween-80 + alcohol): 87 % of control
- T/C (endpoint: median tumor weight change, dose: 12.5 mg/kg/injection, schedule: Q01DX001 (ip), vehicle: saline + Tween-80 + alcohol): 88 % of control
- T/C (endpoint: median tumor weight change, dose: 25.0 mg/kg/injection, schedule: Q01DX001 (ip), vehicle: saline + Tween-80 + alcohol): 87 % of control

Compound: Cc1cc2nc3[nH]c4ccccc4c3nc2cc1C
- T/C (endpoint: median tumor weight (est.), dose: 12.5 mg/kg/injection, schedule: Q07DX005 (ip), vehicle: suspension in saline): 88 % of control
- T/C (endpoint: median tumor weight (est.), dose: 25.0 mg/kg/injection, schedule: Q07DX005 (ip), vehicle: suspension in saline): 52 % of control
- T/C (endpoint: median tumor weight (est.), dose: 50.0 mg/kg/injection, schedule: Q07DX005 (ip), vehicle: suspension in saline): 73 % of control
- T/C (endpoint: median tumor weight (est.), dose: 100.0 mg/kg/injection, schedule: Q07DX005 (ip), vehicle: suspension in saline): 81 % of control
- T/C (endpoint: median tumor weight (est.), dose: 200.0 mg/kg/injection, schedule: Q07DX005 (ip), vehicle: suspension in saline): 88 % of control
- T/C (endpoint: median tumor weight (est.), dose: 400.0 mg/kg/injection, schedule: Q07DX005 (ip), vehicle: suspension in saline): 100 % of control

Compound: COC(=Nc1ccccc1)SSC(C)C
- T/C [3]: 43 % of control and 46 % of control

Compound: CN(Cc1cnc2nc(N)nc(N)c2n1)c1c(Cl)cc(C(=O)NC(CCC(=O)O)C(=O)O)cc1Cl (centres undefined)
- T/C [4]: 72 % of control and 82 % of control
- T/C [5]: 53 % of control and 65 % of control

Compound: Oc1c(Cl)cc(Cl)cc1C=NCCSc1ccc(Cl)cc1
- T/C (endpoint: median tumor weight change, dose: 62.5 mg/kg/injection, schedule: Q01DX001 (ip), vehicle: Klucel (hydroxypropylcellulose) (HPC)): 99 % of control and 100 % of control
- T/C (endpoint: median tumor weight change, dose: 125.0 mg/kg/injection, schedule: Q01DX001 (ip), vehicle: Klucel (hydroxypropylcellulose) (HPC)): 89 % of control and 104 % of control
- T/C (endpoint: median tumor weight change, dose: 250.0 mg/kg/injection, schedule: Q01DX001 (ip), vehicle: Klucel (hydroxypropylcellulose) (HPC)): 87 % of control and 103 % of control

Compound: CNC(=O)OCc1c(COC(=O)NC)c(-c2ccc(Cl)c(Cl)c2)n2c1Cc1ccccc1C2
- T/C (endpoint: median tumor weight change, dose: 125.0 mg/kg/injection, schedule: Q01DX001 (ip), vehicle: distilled water + Tween-80): 77 % of control
- T/C (endpoint: median tumor weight change, dose: 250.0 mg/kg/injection, schedule: Q01DX001 (ip), vehicle: distilled water + Tween-80): 67 % of control
- T/C (endpoint: median tumor weight change, dose: 500.0 mg/kg/injection, schedule: Q01DX001 (ip), vehicle: distilled water + Tween-80): -12 % of control
- T/C (endpoint: median tumor weight change, dose: 1000.0 mg/kg/injection, schedule: Q01DX001 (ip), vehicle: distilled water + Tween-80): -53 % of control
- T/C (endpoint: median tumor weight change, dose: 2000.0 mg/kg/injection, schedule: Q01DX001 (ip), vehicle: distilled water + Tween-80): -71 % of control

Compound: CCCCCCOC(CN(C)C)C(Cl)(Cl)Cl (centres undefined)
- T/C (endpoint: median tumor weight change, dose: 100.0 mg/kg/injection, schedule: Q01DX001 (ip), vehicle: saline with Tween-80): 53 % of control
- T/C (endpoint: median tumor weight change, dose: 125.0 mg/kg/injection, schedule: Q01DX001 (ip), vehicle: saline with Tween-80): 173 % of control
- T/C (endpoint: median tumor weight change, dose: 200.0 mg/kg/injection, schedule: Q01DX001 (ip), vehicle: saline with Tween-80): 68 % of control
- T/C [1]: 81 % of control
- T/C (endpoint: median tumor weight change, dose: 400.0 mg/kg/injection, schedule: Q01DX001 (ip), vehicle: saline with Tween-80): 93 % of control
- T/C [2]: 72 % of control
- T/C (endpoint: median tumor weight change, dose: 1000.0 mg/kg/injection, schedule: Q01DX001 (ip), vehicle: saline with Tween-80): 79 % of control

Compound: c1ccc2c(NCCCCCCNc3c4ccccc4nc4ccccc34)c3ccccc3nc2c1
- T/C (endpoint: median tumor weight (est.), dose: 1.25 mg/kg/injection, schedule: Q07DX005 (ip), vehicle: Klucel (hydroxypropylcellulose) (HPC)): 97 % of control
- T/C (endpoint: median tumor weight (est.), dose: 2.5 mg/kg/injection, schedule: Q07DX005 (ip), vehicle: Klucel (hydroxypropylcellulose) (HPC)): 95 % of control
- T/C (endpoint: median tumor weight (est.), dose: 5.0 mg/kg/injection, schedule: Q07DX005 (ip), vehicle: Klucel (hydroxypropylcellulose) (HPC)): 58 % of control
- T/C (endpoint: median tumor weight (est.), dose: 20.0 mg/kg/injection, schedule: Q07DX005 (ip), vehicle: Klucel (hydroxypropylcellulose) (HPC)): 47 % of control

Compound: CC[As](=O)(O)CC
- T/C (endpoint: mean tumor weight, dose: 12.5 mg/kg/injection, schedule: Q07DX005 (ip), vehicle: saline): 100 % of control
- T/C (endpoint: mean tumor weight, dose: 12.5 mg/kg/injection, schedule: Q07DX007 (ip), vehicle: saline): 70 % of control
- T/C (endpoint: mean tumor weight, dose: 25.0 mg/kg/injection, schedule: Q07DX005 (ip), vehicle: saline): 34 % of control
- T/C (endpoint: mean tumor weight, dose: 25.0 mg/kg/injection, schedule: Q07DX007 (ip), vehicle: saline): 56 % of control
- T/C (endpoint: mean tumor weight, dose: 50.0 mg/kg/injection, schedule: Q07DX007 (ip), vehicle: saline): 38 % of control
- T/C (endpoint: mean tumor weight, dose: 100.0 mg/kg/injection, schedule: Q07DX005 (ip), vehicle: saline): 98 % of control
- T/C (endpoint: mean tumor weight, dose: 100.0 mg/kg/injection, schedule: Q07DX007 (ip), vehicle: saline): 111 % of control
- T/C (endpoint: mean tumor weight, dose: 200.0 mg/kg/injection, schedule: Q07DX005 (ip), vehicle: saline): 41 % of control
- T/C (endpoint: mean tumor weight, dose: 200.0 mg/kg/injection, schedule: Q07DX007 (ip), vehicle: saline): 53 % of control
- T/C [6]: 96 % of control and 119 % of control
- T/C [7]: 62 % of control and 79 % of control
- T/C [8]: 121 % of control
- T/C (endpoint: median tumor weight (est.), dose: 200.0 mg/kg/injection, schedule: Q07DX005 (ip), vehicle: saline): 20 % of control and 41 % of control and 43 % of control

Compound: CN1CCN(CCCN2c3ccccc3Sc3ccc(C(F)(F)F)cc32)CC1
- T/C (endpoint: median tumor weight (est.), dose: 6.25 mg/kg/injection, schedule: Q07DX005 (ip), vehicle: saline with Tween-80): 178 % of control
- T/C [9]: 183 % of control
- T/C [10]: 202 % of control
- T/C [6]: 97 % of control
- T/C [11]: 65 % of control
- T/C [7]: 108 % of control
- T/C [8]: 162 % of control
- T/C [3]: 95 % of control
- T/C (endpoint: median tumor weight (est.), dose: 100.0 mg/kg/injection, schedule: Q07DX005 (ip), vehicle: saline): 70 % of control

Compound: Nc1n[n+](-c2ccc(Cl)cc2)no1
- T/C (endpoint: median tumor weight (est.), dose: 6.25 mg/kg/injection, schedule: Q07DX005 (ip), vehicle: water): 184 % of control
- T/C (endpoint: median tumor weight (est.), dose: 12.5 mg/kg/injection, schedule: Q07DX005 (ip), vehicle: water): 103 % of control
- T/C (endpoint: median tumor weight (est.), dose: 25.0 mg/kg/injection, schedule: Q07DX005 (ip), vehicle: water): 88 % of control

Compound: CN(C)CCOc1ccc2c(c1)C/C(=C/c1ncc([N+](=O)[O-])n1C)C2=O
- T/C [10]: 113 % of control
- T/C [11]: 100 % of control
- T/C (endpoint: median tumor weight (est.), dose: 50.0 mg/kg/injection, schedule: Q07DX005 (ip), vehicle: saline with Tween-80): 93 % of control
- T/C [3]: 61 % of control

Compound: C1CN(P2(N3CC3)=NP(N3CC3)(N3CC3)=NP(N3CC3)(N3CC3)=N2)CCO1 (centres undefined)
- T/C [9]: 39 % of control
- T/C [6]: 44 % of control
- T/C [7]: 6 % of control

Compound: Cc1cc(C)c(-c2cc(O)c(C)cc2O)c(C)c1
- T/C (endpoint: median tumor weight (est.), dose: 12.5 mg/kg/injection, schedule: Q07DX005 (ip), vehicle: Klucel (hydroxypropylcellulose) (HPC)): 56 % of control
- T/C [4]: 150 % of control and 267 % of control
- T/C [5]: 81 % of control
- T/C (endpoint: median tumor weight (est.), dose: 200.0 mg/kg/injection, schedule: Q07DX005 (ip), vehicle: Klucel (hydroxypropylcellulose) (HPC)): 71 % of control
- T/C (endpoint: median tumor weight (est.), dose: 400.0 mg/kg/injection, schedule: Q07DX005 (ip), vehicle: Klucel (hydroxypropylcellulose) (HPC)): 28 % of control
